The subject of assay [1] is LTC4 production in MC/9 cells. Nature of the assay: MC/9 HPLC assay, inhibition of LTC4 production. The assay is classed as cell-based. Conditions: Mus musculus; for inhibition at 3 µM: MC9, 3 μM, A23187 stimulated; for inhibition at 1 µM: MC9, Table 2 column 3, no concentration in head (1 μM according to b732), read-out: % Inhibition LTC4. How it is done:
(§1) Cultured MC/9 cells (3×10^6 cells) in 1 mL HBSS were pre-incubated with a series of concentrations of compound solubilized in DMSO for 30 minutes. Production of leukotrienes were stimulated with the addition of 1 μM calcium ionophore (A23187), diluted from a 4 mM DMSO stock in HBSS, and incubated at room temperature for 20 minutes. The reaction was stopped with the addition of 500 μL of methanol containing 20 ng/mL prostaglandin B2 as an internal standard. Samples were collected and stored at −20° C. at least 2 hr or overnight before centrifuged at 13,000 rpm for 15 minutes and loaded onto C18 SEP-PAK columns (Canadian Lifesciences IS12000) for solid phase extraction. The leukotrienes were analyzed by HPLC using an ACE C18 column (4.5 mm×150 mm, 5 m) eluted with acetonitrile/methanol/water mixture with H3PO4, pH 3.5 (37:26:37) with a flow rate of 1.8 mL/min. The amount of LTB4 (Cayman Chemical, 20110) and LTC4 (Cayman Chemical, 20210) were calculated based on reference standards and the level of inhibition of LTB4 production induced by the test compounds was calculated relative to control samples. The results are provided in Table 2, where Compound No. refers to the compounds identified in Table 1.

The subject of assay [2] is LTB4 production in porcine or human whole blood. Description: Whole blood HPLC assay, inhibition of LTB4 production. The assay is classed as cell-based. Conditions: 5 point curve, porcine or human whole blood (not specified). How it is done: Porcine or human whole blood (1 mL) was pre-incubated with a series of concentrations of compound solubilized in DMSO for 30 minutes. Production of leukotrienes were stimulated with the addition of 20 μM calcium ionophore (A23187), diluted from a 4 mM DMSO stock in HBSS, and incubated at room temperature for 20 minutes. In porcine blood 20 μM arachidonic acid was added in addition to the calcium ionophore. The blood was centrifuged at 2,000 rpm for 15 minutes, and the plasma fraction removed for further processing. Plasma samples were diluted with 500 μL acidified water (HCl pH 3.0) and loaded onto C18 SEP-PAK columns (Canadian Lifesciences IS12000) for solid phase extraction. The leukotrienes were analyzed by HPLC using an ACE C18 column (4.5 mm×150 mm, 5 m) eluted with acetonitrile/methanol/water mixture with H3PO4, pH 3.5 (37:26:37) with a flow rate of 1.8 mL/min. The amount of LTB4 (Cayman Chemical, 20110) was calculated based on reference standards and the level of inhibition of LTB4 production induced by the test compounds was calculated relative to control samples. The results provided in Table 3 are IC50 values calculated based on a 5 point curve, where Compound No. refers to the compounds identified in Table 1.

Assay [3] deals with LTB4 production in MC/9 cells. Nature of the assay: MC/9 HPLC assay, inhibition of LTB4 production. Conditions: Mus musculus, MC9, Table 2 column 4, no concentration in head (1 μM according to b732), read-out: % Inhibition LTB4. The assay is classed as cell-based. As to the method: as §1
In assay [4] the target is T1, recombinant human leukotriene A4 hydrolase enzyme (Homo sapiens, UniProt P09960).
T1 construct: purchased Cayman Chemical 10007817
T1 sequence (P09960 1-611): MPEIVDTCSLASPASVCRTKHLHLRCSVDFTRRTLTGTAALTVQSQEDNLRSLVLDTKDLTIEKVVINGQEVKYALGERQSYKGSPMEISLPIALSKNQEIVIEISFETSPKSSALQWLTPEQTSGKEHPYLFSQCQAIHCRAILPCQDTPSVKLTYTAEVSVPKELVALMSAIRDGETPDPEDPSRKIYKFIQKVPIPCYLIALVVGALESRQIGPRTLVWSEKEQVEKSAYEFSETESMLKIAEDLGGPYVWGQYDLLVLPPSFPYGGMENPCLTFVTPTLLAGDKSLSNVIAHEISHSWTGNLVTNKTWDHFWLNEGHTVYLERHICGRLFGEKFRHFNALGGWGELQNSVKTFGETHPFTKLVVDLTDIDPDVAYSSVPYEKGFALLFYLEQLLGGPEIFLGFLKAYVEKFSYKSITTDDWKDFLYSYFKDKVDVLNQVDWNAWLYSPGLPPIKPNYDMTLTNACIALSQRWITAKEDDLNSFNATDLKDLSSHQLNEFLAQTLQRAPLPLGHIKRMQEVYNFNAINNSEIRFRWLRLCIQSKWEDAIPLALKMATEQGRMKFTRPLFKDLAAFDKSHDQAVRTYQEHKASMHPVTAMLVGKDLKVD
Nature of the assay: Amino-peptidase assay, alanine-4-nitroanalide. It counts as biochemical. The note with it: negative values = augmented peptidase activity, read-out: % Inhibition aminopeptidase-Alanine-4-nitroanalide activity of LTA4H (3 μM). How it is done: A series of compound concentrations were pre-incubated in the absence of light with 0.5 μg of recombinant human leukotriene A4 hydrolase enzyme (Cayman Chemical 10007817) in 50 μL assay buffer (50 mM Tris-HCl, 100 mM KCl). The reaction was stimulated by adding 50 μL 6 mM alanine-4-nitroanilide (Sigma Aldrich A9325) in assay buffer. The amount of amino-peptidase activity was measured by determining the change in absorbance at 405 nm due to 4-nitroanaline production and comparing the rate of change to a reference standard (Sigma Aldrich 185310). Amino-peptidase activity was compared to control samples and the level of inhibition was calculated. Compounds that augment peptidase activity are represented by negative values.

pIC50: −log10 of the molar value. A value given as a limit tells only on which side of the number the result lay.

A word on the inhibition: it is the relative decrease from the control value, in per cent. The term pIC50 denotes −log10 of the IC50, conventionally taken in molar units. Read a high pIC50 as a small IC50.

Compound `COc1cc(C(O)C(F)(F)F)ccc1Oc1nc2c(SC)cccc2s1` (stereo not drawn) [Compound 139, 2,2,2-trifluoro-1-(3-methoxy-4-{[4-(methylsulfanyl)-1,3-benzothiazol-2-yl]oxy}phenyl)ethanol] showed an inhibition at 3 µM in assay [1] of over 90%. In assay [2], this compound had a pIC50 of 5.00 to 6.00.
Regarding `CCC(O)(CCc1ccc(Oc2nc3ccc(OC)cc3s2)c(OC)c1)C(F)(F)F` (stereo not drawn) [Compound 109, 1-{4-[(6-methoxy-1,3-benzothiazol-2-yl)oxy]-3-methoxyphenyl}-3-(trifluoromethyl)pentan-3-ol], the inhibition at 1 µM in assay [3] lay in the range of 70 to 90%; in assay [1], 50 to 70%. In addition, the inhibition at 3 µM in assay [4] is 0 to 50%.
With `CC(O)(c1ccc(OCc2ccc3ccccc3n2)cc1)C(F)(F)F` (stereo not drawn) [Compound 197, 1,1,1-trifluoro-2-[4-(quinolin-2-ylmethoxy)phenyl]propan-2-ol], in assay [1], the inhibition at 3 µM is over 90%. Besides, the pIC50 in assay [2] is 6.00 to 7.00.
`COc1cc(CCC(O)c2ccccc2)ccc1Oc1nc2ccccc2s1` (stereo not drawn) [Compound 132, 3-[4-(1,3-benzothiazol-2-yloxy)-3-methoxyphenyl]-1-phenylpropan-1-ol]: the inhibition at 1 µM is over 90% in assay [3] and 70 to 90% in assay [1]. The pIC50 in assay [2] was under 5.00.
With `CCC(O)(CCc1ccc(Oc2nc3ccccc3s2)c(OC(C)C)c1)C(F)(F)F` (stereo not drawn) [Compound 115, 1-[4-(1,3-benzothiazol-2-yloxy)-3-(iso-propyloxy)phenyl]-3-(trifluoromethyl)pentan-3-ol], in assay [3], the inhibition at 1 µM is under 10%. In assay [1], the inhibition at 3 µM was under 10% and the inhibition at 1 µM was under 10%. The compound further showed a pIC50 in assay [2] of under 5.00.
`CCC(O)(CCc1ccc(OCc2ccc3ccccc3n2)c(OC)c1)C(F)(F)F` (stereo not drawn) [Compound 198] showed an inhibition at 3 µM in assay [1] of 30 to 50%. Besides, the negative-log IC50 (pIC50) in assay [2] was 6.00 to 7.00.
The like results for `CC(O)(c1ccc(Oc2nc3ccccc3s2)cc1)C(F)(F)F` (stereo not drawn) [Compound 163, 2-[4-(1,3-benzothiazol-2-yloxy)phenyl]-1,1,1-trifluoropropan-2-ol] were, in that order, 10 to 30% and under 5.00.
On to `CCC(O)(CCc1ccc(Oc2nc3ccccc3n2C)c(OC)c1)C(F)(F)F` (stereo not drawn) [Compound 105, 1-[4-(1-methyl-1H-benzimidazol-2-yloxy)-3-methoxyphenyl]-3-(trifluoromethyl)pentan-3-ol], for which, in assay [1], the inhibition at 3 µM lay within 70 to 90% and the inhibition at 1 µM was in the range of 30 to 50%. Moreover, in assay [4], the inhibition at 3 µM is 75%.
With `COc1cc(Oc2nc3ccccc3s2)ccc1C(O)C(F)(F)F` (stereo not drawn) [Compound 182, 1-{4-[(1,3-benzothiazol-2-yl}oxy]-2-methoxyphenyl}-2,2,2-trifluoroethan-1-ol], the inhibition at 3 µM in assay [1] was 10 to 30%; in assay [4], under 25%.
Consider `CC(O)c1ccc(Oc2nc3c(F)cc(F)cc3s2)cc1` (stereo not drawn) [Compound 180, 1-{4-[(4,6-difluoro-1,3-benzothiazol-2-yl)oxy]phenyl}ethanol], for which the inhibition at 3 µM is under 10% in assay [1] and 50 to 75% in assay [4].
For the compound `COc1cc(CCC(C)(O)c2ccccc2)ccc1Oc1nc2ccccc2s1` (stereo not drawn) [Compound 123, 4-[4-(1,3-benzothiazol-2-yloxy)-3-methoxyphenyl]-2-(phenyl)butan-2-ol], the results for the inhibition at 1 µM in assay [3] and in assay [1] were 50 to 70% and 10 to 30%, respectively. Also, the inhibition at 3 µM in assay [4] lay within 25 to 50%.
On to `COc1cc(C(C)(O)C(F)(F)F)ccc1OCc1ccc2ccccc2n1` (stereo not drawn) [Compound 199, 1,1,1-trifluoro-2-[3-methoxy-4-(quinolin-2-ylmethoxy)phenyl]propan-2-ol], for which the inhibition at 3 µM in assay [1] was 30 to 50%. The negative logarithm of the IC50 (pIC50) in assay [2] was under 5.00.
Turning to `CC(O)c1ccc(Oc2nc3ccccc3s2)cc1` (stereo not drawn) [Compound 160, 1-[4-(1,3-benzothiazol-2-yloxy)phenyl]ethanol], the inhibition at 3 µM in assay [1] is under 10%. Further, the pIC50 in assay [2] was under 5.00.
`CCC(O)(CCc1ccc(OCc2ccc3ccccc3n2)cc1)C(F)(F)F` (stereo not drawn) [Compound 185, 1-[4-(quinolin-2-ylmethoxy)-phenyl]-3-(trifluoromethyl)-pentan-3-ol]: the inhibition at 3 µM in assay [1] lay in the range of 70 to 90%. In addition, the pIC50 in assay [2] is 6.00 to 7.00.
With `O=C(O)C1CCCN1Cc1ccc(Oc2nc3ccccc3s2)cc1` (stereo not drawn) [Compound 165, 1-[4-(1,3-benzothiazol-2-yloxy)benzyl]pyrrolidine-2-carboxylic acid], the inhibition at 3 µM is under 10% in assay [1] and 50 to 75% in assay [4].
With `CCC(=O)CCc1ccc(Oc2nc3ccccc3o2)c(OC)c1` [Compound 102, 1-[4-(1,3-benzoxazol-2-yloxy)-3-methoxyphenyl]pentan-3-one], the inhibition at 1 µM in assay [3] was over 90%; in assay [1] it was 10 to 30%. Moreover, the inhibition at 3 µM in assay [4] is 0 to 50%.
Take `COc1cc(CCC(C)(O)c2ccccc2)ccc1Oc1nc2ccccc2o1` (stereo not drawn) [Compound 128, 4-[4-(1,3-benzoxazol-2-yloxy)-3-methoxyphenyl]-2-phenylbutan-2-ol]: the inhibition at 1 µM in assay [3] and in assay [1] was under 10% throughout. Further, the figures for the inhibition at 3 µM in assay [1] and in assay [4] were under 10% and under 25%, respectively.
As to `CSc1cccc2sc(Oc3ccc(C(C)O)cc3)nc12` (stereo not drawn) [Compound 176, 1-(4-{[4-(methylsulfanyl)-1,3-benzothiazol-2-yl]oxy}phenyl)ethanol], the inhibition at 3 µM in assay [1] is under 10%; in assay [4], under 25%.
In the case of `CCOc1cc(CCC(O)(CC)C(F)(F)F)ccc1Oc1nc2ccccc2s1` (stereo not drawn) [Compound 121, 1-[4-(1,3-benzothiazol-2-yloxy)-3-ethoxyphenyl]-3-(trifluoromethyl)pentan-3-ol], the inhibition at 1 µM in assay [3] and in assay [1] was 50 to 70% throughout. Moreover, the inhibition at 3 µM in assay [4] is 0 to 50%.
Consider `COc1cc(C(C)(O)C(F)(F)F)ccc1Oc1nc2ccccc2s1` (stereo not drawn) [Compound 173, 2-[4-(1,3-benzothiazol-2-yloxy)-3-methoxyphenyl]-1,1,1-trifluoropropan-2-ol], for which the inhibition at 3 µM was in the range of 30 to 50% in assay [1] and 0 to 50% in assay [4].
Regarding `CCC(O)(CCc1ccc(Oc2nc3ccccc3s2)c(F)c1)C(F)(F)F` (stereo not drawn) [Compound 154, 1-[4-(1,3-benzothiazol-2-yloxy)-3-fluorophenyl]-3-(trifluoromethyl)pentan-3-ol], the results for the inhibition at 1 µM in assay [3] and in assay [1] were 50 to 70% and 30 to 50%, respectively. Moreover, the inhibition at 3 µM is under 10% in assay [1] and over 75% in assay [4].

The record behind these values is patent US12686668B2, “Leukotriene synthesis inhibitors” (Naegis Pharmaceuticals Inc., priority 2019, dated 2026).
